Measured values reported in PubChem BioAssay (NCI).
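Interpolation was linear, between the two tested concentrations surrounding the appropriate level; five concentrations were tested over 48 hours in 96-well plates. GI50 marks 50% less growth. TGI is the concentration that stops growth completely.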

Assays:
Experiment in all cases: NCI-60 cell line screen, 48 h
[1] = test system: SN12C renal
[2] = test system: NCI-H522 lung
[3] = test system: SR leukemia
[4] = test system: UACC-257 melanoma
[5] = test system: HCT-15 colon
[6] = test system: PC-3 prostate
[7] = test system: CAKI-1 renal
[8] = test system: UACC-62 melanoma
[9] = test system: HT29 colon
[10] = test system: HCC-2998 colon

Row | Compound | TGI [1] [µM] | TGI [2] [µM] | TGI [3] [µM] | TGI [4] [µM] | TGI [5] [µM] | TGI [6] [µM] | TGI [7] [µM] | TGI [8] [µM] | TGI [9] [µM] | TGI [10] [µM] | GI50 [1] [µM] | GI50 [2] [µM] | GI50 [3] [µM] | GI50 [4] [µM] | GI50 [5] [µM] | GI50 [6] [µM] | GI50 [7] [µM] | GI50 [8] [µM] | GI50 [9] [µM] | GI50 [10] [µM]
1 | COc1cc(/C=C2\C[C@H]3[C@@H]4CC=C5C[C@@H](N6CCCC6)CC[C@]5(C)[C@H]4CC[C@]3(C)[C@H]2O)cc(OC)c1OC | 29.6 | 26.7 | > 100 | 28.5 | 26.5 | 28.8 | 29.8 | 32.7 | 14.5 | 20.7 | – | – | – | – | – | – | – | – | – | –
2 | CCN(CC)CCCCCCCCNc1c2ccc(Cl)cc2nc2ccc(OC)cc12 | 3.73 | 3.81 | 0.73 | 3.57 | 2.46 | 4.06 | 6.67 | 3.22 | 2.25 | 6.99 | 1.64 | 1.8 | 0.289 | 1.97 | 0.966 | 1.64 | 2.37 | 1.8 | 0.597 | 1.77
3 | O=C(O)Cc1ccc(Oc2nc3ccccc3nc2-c2cccs2)cc1 | > 100 | > 100 | > 100 | > 100 | > 100 | > 100 | > 100 | > 100 | > 100 | > 100 | – | – | – | – | – | – | – | – | – | –
4 | C=CCNC1=C2C[C@@H](C)C[C@@H](OC)C(OC(=O)CCCN(C)C)[C@H](C)/C=C(\C)[C@@H](OC(N)=O)[C@H](OC)/C=C\C=C(/C)C(=O)NC(=CC1=O)C2=O (stereo not given in full) | 12.6 | 20.5 | 8.97 | 27.5 | 19.4 | 17.2 | 25.2 | 26 | 12.1 | 17.6 | – | – | – | – | – | – | – | – | – | –
5 | COc1ccc2c(c1)OCC1(O)Cc3ccccc3OC21 (stereo not given) | > 100 | > 100 | > 100 | > 100 | > 100 | > 100 | > 100 | > 100 | > 100 | > 100 | – | – | – | – | – | – | – | – | – | –
6 | Brc1ccc2c(-c3nc(-c4c[nH]c5ccccc45)cs3)c[nH]c2c1 | > 100 | > 100 | > 82.3 | > 100 | > 100 | > 91.2 | > 100 | > 100 | > 100 | > 100 | – | – | – | – | – | – | – | – | – | –
7 | Cc1cc(NS(=O)(=O)c2ccc(NC(=O)c3ccc4nc5ccccc5c(Nc5ccc(S(=O)(=O)N=C(N)N)cc5)c4c3)cc2)no1 | 34.4 | 34.8 | 46.7 | 67.1 | 29.3 | 39.3 | 33.6 | 46.5 | 38.2 | 30.8 | – | – | – | – | – | – | – | – | – | –
8 | Cc1cc(O)c(C(C)C)cc1NC(=O)Nc1cccc2ccccc12 | 40.5 | 54.1 | > 100 | 33.4 | 69.1 | 29.2 | 30.7 | 25.9 | 36.1 | 41 | – | – | – | – | – | – | – | – | – | –
9 | CC(=O)N1N=C(c2c(O)ccc3ccccc23)CC1C(=O)c1ccco1 (stereo not given) | > 100 | > 100 | 45.3 | > 100 | > 100 | > 100 | > 100 | 32.8 | > 100 | > 100 | – | – | – | – | – | – | – | – | – | –
10 | COc1ccc2oc(S(=O)(=O)N3CC(CCl)c4ccc([N+](=O)[O-])cc43)cc2c1 (stereo not given) | 14 | 0.246 | > 100 | > 32.1 | 3.3 | 11.5 | 0.239 | > 37.6 | 68 | 2.62 | – | – | – | – | – | – | – | – | – | –
11 | COc1c2occc2c(OC)c2c(=O)c(S(=O)(=O)NC(=O)Nc3ccc(Cl)cc3)coc12 | > 10 | > 10 | > 10 | > 10 | > 10 | > 10 | > 10 | > 10 | > 10 | > 10 | – | – | – | – | – | – | – | – | – | –
12 | COCn1c2ccc(OC(C)=O)cc2c2c(=O)oc(C)nc21 | > 100 | > 100 | > 100 | > 100 | > 100 | > 100 | > 100 | > 100 | > 100 | > 100 | – | – | – | – | – | – | – | – | – | –
13 | CCCCC/C=C1/CC(CO)(COC(=O)CC(C(C)C)C(C)C)OC1=O (stereo not given) | 26 | 29.9 | 42.8 | 47.4 | 33.6 | 24.6 | 23.1 | 29.6 | 34.9 | 35.2 | – | – | – | – | – | – | – | – | – | –
14 | COc1cc(C2c3cc4c(cc3C(O)C3CCC(=O)N23)OCO4)cc(OC)c1OC (stereo not given) | > 100 | 89.9 | > 100 | > 100 | > 100 | > 100 | > 100 | > 100 | 76.7 | > 100 | – | – | – | – | – | – | – | – | – | –
15 | CN(C(=O)C12C3C4(C(=O)O)C1(C(=O)N(C)C(C)(C)C)C1C2(C(=O)O)C3(C(=O)N(C)C(C)(C)C)C14C(=O)N(C)C(C)(C)C)C(C)(C)C (stereo not given) | > 100 | > 100 | > 100 | > 100 | > 100 | > 100 | > 100 | > 100 | > 100 | > 100 | – | – | – | – | – | – | – | – | – | –
16 | NNC(=O)CC(=O)Nc1ccc(Cl)cc1 | > 100 | > 100 | > 100 | > 100 | > 100 | > 100 | > 100 | > 100 | > 100 | > 100 | – | – | – | – | – | – | – | – | – | –
17 | O=C(CCc1cccc(O)c1)NCCc1cccc(O)c1 | > 100 | > 100 | > 100 | > 100 | > 100 | > 100 | > 100 | > 100 | > 100 | > 100 | – | – | – | – | – | – | – | – | – | –
18 | CC1=NN(c2cccc(Cl)c2)C2(C1)C(Cl)C(=O)N2c1nc2ccccc2s1 (stereo not given) | 82.3 | 56.6 | 34.3 | > 100 | > 100 | 63.8 | > 100 | > 100 | > 100 | > 100 | – | – | – | – | – | – | – | – | – | –
19 | Cc1c(-c2ccccc2)c(C#N)c2nnn(-c3ccccc3)c(=O)n12 | > 100 | > 100 | > 100 | > 100 | > 100 | > 100 | > 100 | > 100 | > 100 | > 100 | – | – | – | – | – | – | – | – | – | –
20 | COC(=O)c1c(OC(C)=O)ccc2c1c1c(OC(C)=O)c3ccccc3c(OC(C)=O)c1n2Cc1cc(OC)cc(OC)c1 | > 100 | 9.2 | > 100 | > 100 | > 100 | > 100 | > 100 | > 100 | > 100 | 10.9 | – | – | – | – | – | – | – | – | – | –
21 | CCSSCS(C)(=O)=O | 67.8 | 40 | > 100 | 57.1 | 32.9 | > 100 | > 100 | > 100 | > 100 | 34.7 | – | – | – | – | – | – | – | – | – | –
22 | CC1(C)C2CCC1(CS(=O)(=O)Nc1ccccc1)C(=O)C2 (stereo not given) | > 100 | > 100 | > 100 | > 100 | > 100 | > 100 | > 100 | > 100 | > 100 | > 100 | – | – | – | – | – | – | – | – | – | –
23 | CCCSc1cc(Cl)c(C)cc1S(=O)(=O)n1ccnc1OCCCN(C)C | > 100 | > 100 | > 100 | > 100 | > 100 | > 100 | > 100 | > 100 | > 100 | > 100 | – | – | – | – | – | – | – | – | – | –
24 | N/C(=N\N=C\c1ccc2c(c1)OCO2)NO | > 100 | > 100 | 31.7 | > 100 | > 100 | > 100 | > 100 | 49.2 | > 100 | > 100 | – | – | – | – | – | – | – | – | – | –
25 | CC1(C)O[C@H](C(=O)O)[C@@H](C(=O)O)O1 | > 100 | > 100 | > 100 | > 100 | > 100 | > 100 | > 100 | > 100 | > 100 | > 100 | – | – | – | – | – | – | – | – | – | –
26 | O=c1c2ccccc2oc2c1ccc1ncccc12 | > 100 | 59.1 | > 100 | 70.6 | > 100 | > 100 | 34.5 | 73.6 | > 100 | > 100 | – | – | – | – | – | – | – | – | – | –
27 | O=C(Nc1ccccc1)c1cc2c(cc1Cl)Sc1nccn1S2(=O)=O | > 100 | 38.6 | > 73 | 53.7 | > 75.3 | > 70.1 | 7.53 | 38.4 | > 75.6 | 37.7 | – | – | – | – | – | – | – | – | – | –
28 | CCOC(=O)C(=[N+]=[N-])C(=O)C[N+]12CCN(CC1)CC2 | > 100 | > 100 | > 100 | > 100 | > 100 | > 100 | > 100 | > 100 | > 100 | > 100 | – | – | – | – | – | – | – | – | – | –
29 | CC(C)CC(=O)NC(Nc1ccc(S(=O)(=O)Nc2ncccn2)cc1)(C(F)(F)F)C(F)(F)F | > 100 | > 100 | > 100 | > 100 | > 100 | > 100 | > 100 | > 100 | > 100 | > 100 | – | – | – | – | – | – | – | – | – | –
